Assay results as given in patent publication US20250312336A1, “Compositions And Methods For Treating Cancer With Calcium Channel Inhibitors” (Institute for Cancer Research d/b/a The Research Institute …, priority 2024, published 2025).
Entries after “also recorded” stand apart in the source; their conditions may differ.

Tests used:
ANO6 [1] = target: T1, ANO6 (Homo sapiens, UniProt Q4KMQ2); assay: Phosphatidylserine externalization assay in CAFs pulsed with ionomycin (annexin XII); assay type: cell-based; parameters: endogenous in cells; host or cells: human patient-derived, hTERT-immortalized pancreatic cancer-associated fibroblasts (CAFs)
T1 sequence (Q4KMQ2 1-910): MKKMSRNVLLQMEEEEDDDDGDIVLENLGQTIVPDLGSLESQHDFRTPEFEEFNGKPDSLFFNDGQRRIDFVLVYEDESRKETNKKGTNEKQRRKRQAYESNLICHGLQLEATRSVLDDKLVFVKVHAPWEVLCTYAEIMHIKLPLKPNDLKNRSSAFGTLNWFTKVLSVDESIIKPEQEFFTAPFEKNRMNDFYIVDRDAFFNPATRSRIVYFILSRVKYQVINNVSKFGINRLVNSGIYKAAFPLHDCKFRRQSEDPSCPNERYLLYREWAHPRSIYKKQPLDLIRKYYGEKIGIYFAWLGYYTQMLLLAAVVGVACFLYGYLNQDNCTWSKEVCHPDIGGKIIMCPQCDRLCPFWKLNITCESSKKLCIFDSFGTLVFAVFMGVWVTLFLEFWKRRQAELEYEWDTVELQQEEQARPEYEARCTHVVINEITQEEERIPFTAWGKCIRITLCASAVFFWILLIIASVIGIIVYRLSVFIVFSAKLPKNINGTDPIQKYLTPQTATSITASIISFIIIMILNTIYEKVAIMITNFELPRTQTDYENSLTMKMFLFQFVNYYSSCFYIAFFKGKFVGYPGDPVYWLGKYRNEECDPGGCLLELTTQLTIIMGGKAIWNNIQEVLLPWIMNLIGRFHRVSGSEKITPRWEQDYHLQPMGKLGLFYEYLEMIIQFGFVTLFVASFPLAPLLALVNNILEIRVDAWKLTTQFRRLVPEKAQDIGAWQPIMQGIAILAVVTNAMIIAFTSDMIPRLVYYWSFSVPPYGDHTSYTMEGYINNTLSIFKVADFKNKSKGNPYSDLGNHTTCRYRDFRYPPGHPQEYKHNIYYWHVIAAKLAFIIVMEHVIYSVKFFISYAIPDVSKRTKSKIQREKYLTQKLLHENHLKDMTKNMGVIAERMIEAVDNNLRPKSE
Procedure: (§1) CAFs were seeded in 24-well glass bottom plates (cat. #81156, Ibidi, Fitchburg, WI) at a density of 20,000 cells per well. Cells were then treated with niclosamide (1 μM) for 2 h. After one wash with FBS-free media at RT, cells were incubated with 250 μl of 1:100 annexin XII and 1:200 propidium iodide (pSIVA Abcam #ab129817), with or without 10 μM ionomycin. Cells were then incubated (5 min 37C) and imaged by fluorescence microscopy using a Nikon A1 camera (Nikon) linked to a Nikon Eclipse Ti2-E Inverted Microscope Imaging System (Nikon) for each channel. Fifteen images per well were acquired.

KPCN349 cells = assay: Trogocytosis of BODIPY-cholesterol labeled CAF membranes by KPCN349 cells with PtdSer masking; assay type: cell-based, murine; conditions: 100 nM Annexin-V or 100 nM Zn-DPA; CAFs pre-treated 2 h, maintained in co-culture
Procedure: (§2) To label cellular membranes, pairs of lipophilic fluorescent dyes were used according to the manufacturer's instructions in the following combinations: 1) adherent CAFs were stained with 1 μM PKH67 (Sigma-Aldrich), Panc-1 were stained in suspension with 10 μM CellTracker™ orange CMCMR (Thermo Fisher Scientific); 2) CAFs labeled with 0.5 μM BODIPY-cholesterol (Topfluor Cholesterol, #DO-016545, Avanti Polar Lipids) dissolved in 0.1 mM methyl-beta-cyclodextrin (#C4555, Sigma) with 2 μM cholesterol (#C8667, Sigma-Aldrich) in MEM media at 37° C. for 30 min in suspension; murine or human (Panc-1) PDAC cells were stained in suspension with CPD670 (#65-0840-85, Thermo Fisher Scientific). After labeling, CAFs were co-incubated for the indicated time intervals with PDAC cells in 12-well culture plates at ratio of 2:1 in 0.5% DMEM media. Co-cultures of CAFs and PDAC cells for 3 minutes on ice minutes were used as negative controls. In experiments assessing the effect of extracellular calcium on trogocytosis, cells were co-cultured in Phosphate Buffered Saline (PBS) containing calcium and magnesium (D8662, Sigma-Aldrich) or in PBS without calcium and magnesium (D8537, Sigma-Aldrich). […] Trogocytosis was measured as the acquisition of CAF-specific fluorescence in PDAC cells by flow cytometry on MACSQuant® VYB Flow Cytometer (Miltenyi Biotec) or FACScan analyzer (BD Biosciences). […]

PDAC cells = assay: Trogocytosis of CAF membranes by PDAC cells with cytoskeleton inhibitors; assay type: cell-based; conditions: cytoskeleton (actin polymerization) inhibitors
Procedure: To label cellular membranes, pairs of lipophilic fluorescent dyes were used according to the manufacturer's instructions in the following combinations: 1) adherent CAFs were stained with 1 μM PKH67 (Sigma-Aldrich), Panc-1 were stained in suspension with 10 μM CellTracker™ orange CMCMR (Thermo Fisher Scientific); 2) CAFs labeled with 0.5 μM BODIPY-cholesterol (Topfluor Cholesterol, #DO-016545, Avanti Polar Lipids) dissolved in 0.1 mM methyl-beta-cyclodextrin (#C4555, Sigma) with 2 μM cholesterol (#C8667, Sigma-Aldrich) in MEM media at 37° C. for 30 min in suspension; murine or human (Panc-1) PDAC cells were stained in suspension with CPD670 (#65-0840-85, Thermo Fisher Scientific). After labeling, CAFs were co-incubated for the indicated time intervals with PDAC cells in 12-well culture plates at ratio of 2:1 in 0.5% DMEM media. Co-cultures of CAFs and PDAC cells for 3 minutes on ice minutes were used as negative controls. In experiments assessing the effect of extracellular calcium on trogocytosis, cells were co-cultured in Phosphate Buffered Saline (PBS) containing calcium and magnesium (D8662, Sigma-Aldrich) or in PBS without calcium and magnesium (D8537, Sigma-Aldrich). After co-cultures, cells were collected and pelleted by centrifugation (5 min, 1500 rpm), resuspended in 10% formalin (Sigma) for 10 min at RT, washed and re-suspended in PBS/1% BSA. Trogocytosis was measured as the acquisition of CAF-specific fluorescence in PDAC cells by flow cytometry on MACSQuant® VYB Flow Cytometer (Miltenyi Biotec) or FACScan analyzer (BD Biosciences). Analysis of dual staining was done using FlowJo software (10.8.1, BD Biosciences). Live cells were gated based on FSC/SSC parameters, then single cells were gated based on SSC-A/SSC-H.

Panc-1 cells = assay: Trogocytosis of PKH67-labeled CAF membranes by Panc-1 cells in co-culture (flow cytometry); assay type: cell-based, human; conditions: 3 mM EGTA, mean fluorescence intensity normalized to vehicle
Procedure: as §2

[2] = system: store-operated calcium entry (SOCE) in CAFs; assay: Cytosolic calcium (Fluo4) in CAFs co-cultured with Panc-1 cells; assay type: cell-based, human; conditions: indicated concentrations of inhibitors, Fluo4 measured 5 minutes after addition
Procedure: CAF (5×10^3) and PDAC ([…]) cells were incubated (separately or in co-culture) on coverslips for 12 hrs before loading with the calcium indicator Fluo4-AM (5 μM; Invitrogen, Eugene, OR) in DMEM supplemented with HEPES and 0.5% FBS and incubated at 37° C., 5% CO2 for 30 min. Cells were washed in DMEM before incubating for an additional 30 minutes at 37° C., 5% CO2 to permit de-esterification of the dye. Fluorescence emissions at 506 nm in response to excitation at 494 nm were monitored for 60 cycles at a frequency of 0.33 Hz using a Leica SP8 laser scanning microscope (Buffalo Grove, IL) at 37° C. with 5% CO2. Intracellular Ca2+measurements are shown as absolute fluorescence obtained from 35-45 cells obtained using Leica LASX software. Averaged results±SEM from at least three independent experiments were analyzed by one-way ANOVA with GraphPad Prism. […]
CAF (5×10^3) cells were incubated on coverslips for 12 hrs before loading with the calcium indicator Fura2-AM (2 μM; Invitrogen, Eugene, OR) in cation-safe solution (107 mM NaCl, 7.2 mM KCl, 1.2 mM MgCl2, 11.5 mM glucose, 20 mM Hepes-NaOH, 1 mM CaCl2, pH 7.2) for 30 min at 24° C. as previously described. Cells were washed, and dye was allowed to de-esterify for a minimum of 30 min at 24° C. Cells were treated with Vehicle control, […] CM462, or 1 μM BTP2 along with 2 μM Thapsigargin for 10 minutes. After Ca2+ levels returned to their baseline, 1 mM Ca2+ was added. Ca2+ measurements were made using a Leica DMI 6000B fluorescence microscope controlled by Slidebook Software (Intelligent Imaging Innovations; Denver, CO). Fluorescence emission at 505 nm was monitored while alternating between 340 and 380 nm excitation wavelengths at a frequency of 0.67 Hz; intracellular Ca2+ measurements are shown as 340/380 nm ratios obtained from groups (20-25) of single cells.

ANO6 [3] = target: T1, ANO6; assay: PtdSer externalization (annexin XII) in CAFs co-cultured with DsRed-tagged Panc-1 cells; assay type: cell-based; parameters: this increase was observed only in control CAFs (ANO6-proficient) engaged in physical contacts with DsRed-tagged Panc-1 cells; endogenous in cells; host or cells: human CAFs in co-culture with DsRed-tagged Panc-1 cells; conditions: BTP2 10 μM; clofazimine 1 μM; niclosamide
Procedure: as §1

OT-1 CTLs = assay: Trogocytosis assay of DiD-labeled CAFs co-cultured with OT-1 CTLs; assay type: cell-based, mouse; conditions: for Transfer of DiD (CAF PM uptake) from CAFs to OT-1 CTLs: 12 h co-culture, niclosamide 1 μM, clofazimine 1 μM, anti-TIM3 Ab 4 μg/ml, 25-hydroxycholesterol 4 μM
Procedure: For trogocytosis between OT-1 and CAF cells, T cells were isolated from splenocytes of OTI mice (strain 021880, The Jackson Laboratory) and stimulated with OVA257-264 (1 μg/ml) for 24 hours as described.
Cholesterol abundance in cell membranes was determined with Cholesterol Detection Assay Kit (Cayman, cat #10009779). Dissociated cells were fixed with fixative solution for 10 minutes, washed and labeled with Filipin III as per the manufacturer's instructions. Labeling with Filipin III was done by incubating in the dark for 30 minutes. After two washes for 5 minutes each, labeling was analyzed by flow cytometry (excitation: 340-380, emission: 385-470). The IFN-γ, Granzyme B and Foxp3 were detected using Foxp3/Transcription Factor Staining Buffer (00-5523-00, Thermo Fisher Scientific). Cells were stained for cell surface markers at 4° C. for 30 min followed by fixation and permeabilization buffer for 30 mins and two washes with permeabilization buffer and incubation with the indicated antibodies for 30 mins, washed with PBS twice followed by flow cytometry analysis.

C[C@H](CCC(=O)O)C[C@H](C)C[C@H](C)C(=O)/C=C(\O)[C@H](C)C[C@H](C)C/C=C/[C@@H](C)[C@@H](O)[C@@H](C)[C@@H](O)C[C@@H]1CC[C@@](C)([C@H]2CC[C@@](C)([C@@H](C)O)O2)O1 [ionomycin]
Cytoplasmic calcium in control CAFs (ANO6 [1]; calcium ionophore treatment): increased cytoplasmic calcium
PtdSer externalization to the PM in control CAFs (ANO6 [1]; calcium ionophore treatment): led these cells to externalize PtdSer

bis-Zn-dipicolylamine [Zn-DPA]
Uptake of BODIPY-labeled CAF membranes by KPCN349 cells (KPCN349 cells): significantly reduced uptake; also recorded: antagonizes trogocytosis

lantrinculin A
Uptake of CAF PMs by PDAC cells (PDAC cells): partially suppressed

C=C1[C@@H](C)[C@H]2[C@H](Cc3ccccc3)NC(=O)[C@]23[C@H](OC(C)=O)/C=C/[C@@](C)(O)C(=O)[C@@H](C)C/C=C/[C@H]3[C@@H]1O [Cytochalasin D]
Uptake of CAF PMs by PDAC cells (PDAC cells): suppressed uptake of CAF PMs
Uptake of CAF PMs by PDAC cells (PDAC cells; listed as cytochalasin D): partially suppressed

O=C(N/N=C/c1ccc(O)c(O)c1)c1cc2ccccc2cc1O [Dynasore]
Trogocytosis of CAF membranes / uptake of membrane lipids from human CAFs by Panc-1 cells (Panc-1 cells; listed as dynasore): did not affect the uptake

Cc1nnsc1C(=O)Nc1ccc(-n2nc(C(F)(F)F)cc2C(F)(F)F)cc1 [BTP2]
Cytosolic Ca2+ elevation (Fluo4 signal) in CAFs engaged in cell-cell contacts with PDAC (Panc-1) cells [2]: effectively blocked cytosolic Ca2+ elevation; also recorded: abrogated Fluo4 fluorescent signal
PtdSer externalization (annexin XII) in CAFs co-cultured with Panc-1 cells (ANO6 [3]): suppressed PtdSer externalization; also recorded: blocked

O=C(O)CN(CCOCCOCCN(CC(=O)O)CC(=O)O)CC(=O)O [EGTA]
Trogocytosis of CAF membranes / uptake of membrane lipids from human CAFs by Panc-1 cells (Panc-1 cells): inhibited
PtdSer externalization in CAFs with extracellular calcium chelator (ANO6 [1]; 1 μM ionomycin 5 minutes, 2 mM EGTA, annexin XII): blocked

COc1ccc2c(c1)CC[C@@H]1[C@@H]2CC[C@]2(C)[C@@H](NCCCCCCN3C(=O)C=CC3=O)CC[C@@H]12 [U73122]
Cytosolic Ca2+ elevation (Fluo4 signal) in CAFs engaged in cell-cell contacts with PDAC (Panc-1) cells [2]: no effect on Fluo4 signal

C/C1=C/C(=O)O[C@@H]2C[C@@H](CC[C@H](C)/C=C\CC1)O[C@@](O)([C@@H]1CSC(=O)N1)C2 [Latrunculin B]
Uptake of CAF PMs by PDAC cells (PDAC cells): suppressed uptake of CAF PMs

Cc1cccc(F)c1C(=O)Nc1cnc(-c2cc3c(cc2Cl)OC(F)(F)O3)cn1 [zegocractin]
Cytosolic Ca2+ elevation (Fluo4 signal) in CAFs engaged in cell-cell contacts with PDAC (Panc-1) cells [2]: abrogated Fluo4 fluorescent signal
Cytosolic Ca2+ elevation (Fluo4 signal) in CAFs engaged in cell-cell contacts with PDAC (Panc-1) cells ([2]; listed as zegocratin): effectively blocked cytosolic Ca2+ elevation

C[C@H](CCCC(C)(C)O)[C@H]1CC[C@H]2[C@@H]3CC=C4C[C@@H](O)CC[C@]4(C)[C@H]3CC[C@]12C [25-hydroxycholesterol]
Ability of CAFs to inhibit IFN-γ production by the CTLs (OT-1 CTLs; 12 h co-culture with CAFs): reduced the ability of CAFs to inhibit IFN-γ production
Transfer of DiD (CAF PM uptake) from CAFs to OT-1 CTLs (OT-1 CTLs): effectively inhibited the transfer of DiD

B1: annexin V: PtdSer binding recombinant annexin V, label-free (protein, UniProt P08758 2-320, looked up)
Annexin A5: AQVLRGTVTDFPGFDERADAETLRKAMKGLGTDEESILTLLTSRSNAQRQEISAAFKTLFGRDLLDDLKSELTGKFEKLIVALMKPSRLYDAYELKHALKGAGTNEKVLTEIIASRTPEELRAIKQVYEEEYGSSLEDDVVGDTSGYYQRMLVVLLQANRDPDAGIDEAQVEQDAQALFQAGELKWGTDEEKFITIFGTRSVSHLRKVFDKYMTISGFQIEETIDRETSGNLEQLLLAVVKSIRSIPAYLAETLYYAMKGAGTDDHTLIRVMVSRSEIDLFNIRKEFRKNFATSLYSMIKGDTSGDYKKALLLLCGEDD
Uptake of BODIPY-labeled CAF membranes by KPCN349 cells (KPCN349 cells): significantly reduced uptake; also recorded: antagonizes trogocytosis
Transfer of DiD (CAF PM uptake) from CAFs to OT-1 CTLs (OT-1 CTLs): significantly reduced CAF PM uptake
